# Measurements from patent US9205064B2, “Methods for the diagnosis of oncological disorders using epimetabolic shifters, multidimensional intracellular molecules, or environmental influencers” (Berg LLC, priority 2009, dated 2015).
# What was measured:
# [1] = system: Pyruvate Dehydrogenase beta (PDH-E1); test: Western blot of pyruvate dehydrogenase beta levels; format: cell-based, human
# Experimental: The samples were processed and run on a 4-12% Bis-Tris Novex NuPAGE gel as described above. The gels were run, transferred and stained essentially as described above.
# The pyruvate kinase blots were stripped by incubating for 30 minutes with methanol, followed by two 10 minute washes with TBS-T, then 30 minutes of incubation with Stripping buffer at 50 deg C., and followed by two washes with 100 ml or more of TBS-T for 30′ each. The 2 blots were scanned in laser scanner to check for complete stripping. After making sure stripping of the antibody and the ECF reagent has worked, the blots were activated with methanol for 5 seconds, washed with water for 5 minutes, and TBST for 15 minutes. The blots are blocked for 1 hour with 5% blocking reagent in TBS-T at room temperature and then washed 3 times with TBS-T (1×-15′; 2×5′ each) and probed with the antibody for Pyruvate Dehydrogenase in 5% BSA (ABNOVA catalog #H00005162-M03) at 1:500 dilutions) overnight at 4 deg C. with shaking. […]
# The levels of LDH and PDH were determined by probing the blots successively with primary antibodies for LDH and PDH, essentially as described above. […]
# HASMC cells = test: SeaHorse XF analyzer OCR and ECAR; format: cell-based, human; conditions: hyperglycemic, hypoxic conditions
# From the text: Environmental influencers (e.g., MIMs or Epi-shifters) may also be identified by changes in cellular energetics. One example of the measurement of cellular energetics are the real-time measures of the consumption of molecular oxygen and/or the change in pH of the media of a cell culture. For example, the ability of a potential epi-shifter to modulate the metabolic state of a cell may be analyzed using, for example, the XF24 Analyzer (Seahorse, Inc.). This technology allows for real time detection of oxygen and pH changes in a monolayer of cells in order to evaluate the bioenergetics of a cell microenvironment. The XF24 Analyzer measures and compares the rates of oxygen consumption (OCR), which is a measure of aerobic metabolism, and extracellular acidification (ECAR), which is a measure of glycolysis, both key indicators of cellular energetics.
# (SeaHorse Biosciences Inc, North Billerica, Mass.).
# In this experiment, the OCR and extracellular acidification rate (ECAR) in normal cells lines were obtained in the presence and absence of CoQ10 to determine baseline values. It was observed that in its native nutrient environment, the basal OCR rates in normal cells lines are different, and are usually a function of the physiological roles of the cells in the body. […]
# In Table 54 the measured baseline ECAR values (mpH/min) in HASMC were higher compared to that of HDFa. […]
structure (smiles),measurement,setting,value
"COC1=C(OC)C(=O)C(C/C=C(\C)CC/C=C(\C)CC/C=C(\C)CC/C=C(\C)CC/C=C(\C)CC/C=C(\C)CC/C=C(\C)CC/C=C(\C)CC/C=C(\C)CCC=C(C)C)=C(C)C1=O [Q10, Coenzyme Q10]",expression of PDH-E1,[1]; cancer cells,progressive increase
same,expression of PDH-E1,[1]; normal cells,minimal changes
same,ECAR rates,HASMC cells,downward trend
